The text below walks through data of patent US11304956B2, “Use of 7-bromo-5-(O-chlorophenyl)-3-propoxy-1,2-dihydro-3H-1,4-benzodiazepin-2-one for inhibition of neuropathic pain and seizures of different etiology” (priority 2016, dated 2022).

The test system of one data set is gastric mucosa. The experiment in a line: Ulcerogenic effect, chronic experiment (28 days intragastric). In kind it is in vivo, rats. To be noted: 0.5 mg/kg intragastrally for 28 days, n = 14. As to the method:
Evaluation of ulcerogenic action was carried out on a 4-score scale:
0 score—no damage; 0.5 score—hyperemia (blood vessels overflow)
1 score—single minor lesions (1-3 point hemorrhages or small ulcers)
2 score—multiple (more than 3) lesions (erosions, pinpoint hemorrhages) or 1 large ulcer
3 score—significant and massive damages (erosions, hemorrhages) of the gastric mucosa with significant size (diameter up to 4 mm)
4 score—gross injuries (massive hemorrhages, erosions, perforations) that cover the entire surface of the gastric mucosa.
The average multiplicity index of damage to the gastric mucosa (the number of ulcers per animal) and the severity of the damage (in scores) were determined.
To determine the safety of this compound in a chronic trial during long-term administration, it was administered to rats for 28 days at a dose close to ED50 by analgesic effect (0.5 mg/kg).
The data presented indicate that there is no serious damage to the stomach from the test compound, even when administered at very high doses, several orders higher than the average effective doses, and which are close to the upper limit of permitted doses that can be administered to rats once. Therefore, at the next stage it became reasonable to determine the effect of Compound 1 on the stomach after prolonged use (28 days) in an average effective dose of 0.5 mg/kg.

For data set [1], the system named is acetic acid "writhing" test. The conditions noted are these: intraperitoneal administration of acetic acid; earlier work of the applicants; cited from earlier work.

With `CCCOC1N=C(c2ccccc2Cl)c2cc(Br)ccc2NC1=O` (stereo not drawn) [Compound 1, 7-bromo-5-(o-chlorophenyl)-3-propoxy-1,2-dihydro-3H-1,4-benzodiazepin-2-one], in the data set with gastric mucosa, the “Number of animals with different degrees lesions of the gastric mucosa, score 1” value is 4; the “Number of animals with different degrees lesions of the gastric mucosa, score 3” value was 0; the “Number of animals with different degrees lesions of the gastric mucosa, score 4” value was determined as 0; the “The multiplicity of damage” value worked out at 0.5±0.23. For the same compound, the Average score in the data set on gastric mucosa (4-score scale) is 0.4±0.17. For the same compound, the “Analgesic activity in the "writhing" test” value in data set [1] is given as “high analgesic activity”.
